For orientation: IC50 means the midpoint of a concentration-inhibition curve.

Here are results for five compounds from US20250340567A1, “Next Generation Synthetic Transcription Factors” (WISCONSIN ALUMNI RESEARCH FOUNDATION, priority 2018, published 2025).

Some results are limits rather than exact numbers.

Data set [1] has as its target BRD4(1) first bromodomain (Homo sapiens, UniProt O60885). The following applies: cited from earlier work.
Data set [2] addresses BRD4(2) second bromodomain (Homo sapiens, UniProt O60885). As to conditions: cited from earlier work.
Another data set concerns the target BRD3 (Homo sapiens, UniProt Q15059). As to conditions: cited from earlier work.
The next data set addresses BRD2 (Homo sapiens, UniProt P25440). As to conditions: cited from earlier work.
The subject of a further data set is BET bromodomain. The following applies: read-out: IC50 BET bromodomain; cited from earlier work.
A further data set concerns BET BD1. The following applies: cited from earlier work.
A further data set concerns BET BD2. As to conditions: cited from earlier work.
The nature of data set [3]: Stability of synthetic transcription factors on storage, followed by mass spectra. The class given is physicochemical. The following applies: at 18° C., mass spectra (FIG. 2). Here is the method: In as little as 5 days at 18° C., SynTEF1 begins to break down (FIG. 2).
Other synthetic transcription factors having an ether bond as described herein between the bromodomain binding moiety and the linker also have shown improved stability.

Sequence of BRD3 (Q15059 whole entry, species assumed): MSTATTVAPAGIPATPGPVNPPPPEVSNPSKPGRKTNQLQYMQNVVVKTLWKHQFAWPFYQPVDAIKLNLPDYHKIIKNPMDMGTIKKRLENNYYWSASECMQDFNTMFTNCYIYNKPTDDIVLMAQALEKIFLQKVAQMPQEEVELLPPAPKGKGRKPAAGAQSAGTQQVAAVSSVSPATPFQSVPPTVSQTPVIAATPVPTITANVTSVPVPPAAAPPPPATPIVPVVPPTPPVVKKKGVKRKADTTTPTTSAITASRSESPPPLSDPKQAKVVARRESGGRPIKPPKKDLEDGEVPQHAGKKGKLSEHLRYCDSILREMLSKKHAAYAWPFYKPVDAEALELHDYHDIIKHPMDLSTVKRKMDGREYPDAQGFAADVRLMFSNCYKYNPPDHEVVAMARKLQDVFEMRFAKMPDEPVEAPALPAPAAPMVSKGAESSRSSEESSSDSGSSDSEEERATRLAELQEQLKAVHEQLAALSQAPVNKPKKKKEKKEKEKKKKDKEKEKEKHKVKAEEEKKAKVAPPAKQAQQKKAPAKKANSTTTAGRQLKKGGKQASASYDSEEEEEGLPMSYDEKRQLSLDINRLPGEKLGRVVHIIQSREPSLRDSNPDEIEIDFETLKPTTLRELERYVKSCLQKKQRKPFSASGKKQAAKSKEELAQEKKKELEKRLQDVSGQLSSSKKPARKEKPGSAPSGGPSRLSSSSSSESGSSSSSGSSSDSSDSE
Sequence of BRD2 (P25440 whole entry, species assumed): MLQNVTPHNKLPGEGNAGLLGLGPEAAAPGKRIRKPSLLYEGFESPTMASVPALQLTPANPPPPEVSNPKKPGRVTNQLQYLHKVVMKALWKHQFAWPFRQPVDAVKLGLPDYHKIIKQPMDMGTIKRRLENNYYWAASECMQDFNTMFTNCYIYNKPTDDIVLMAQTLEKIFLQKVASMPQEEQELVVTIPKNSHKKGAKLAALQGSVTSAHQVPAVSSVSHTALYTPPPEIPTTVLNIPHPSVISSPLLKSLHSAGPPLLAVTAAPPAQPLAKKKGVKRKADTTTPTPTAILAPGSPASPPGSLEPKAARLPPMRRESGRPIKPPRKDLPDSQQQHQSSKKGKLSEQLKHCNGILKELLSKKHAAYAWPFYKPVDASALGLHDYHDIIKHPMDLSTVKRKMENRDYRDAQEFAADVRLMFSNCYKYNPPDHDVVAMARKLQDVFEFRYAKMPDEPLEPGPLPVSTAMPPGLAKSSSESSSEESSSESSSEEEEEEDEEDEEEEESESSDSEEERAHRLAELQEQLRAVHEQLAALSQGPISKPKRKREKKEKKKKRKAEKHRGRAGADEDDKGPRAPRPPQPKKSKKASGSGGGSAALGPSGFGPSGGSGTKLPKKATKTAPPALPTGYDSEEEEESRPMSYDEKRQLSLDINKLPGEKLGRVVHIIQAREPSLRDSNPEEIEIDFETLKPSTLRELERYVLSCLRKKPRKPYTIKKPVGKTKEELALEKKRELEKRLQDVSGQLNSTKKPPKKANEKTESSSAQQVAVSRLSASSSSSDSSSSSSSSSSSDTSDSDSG

Take `Cc1sc2c(c1C)C(c1ccc(Cl)cc1)=N[C@@H](CC(=O)NC(C)(C)C)c1nnc(C)n1-2` [(+)-JQ1]: the figures for the IC50 in data set [1] and in data set [2] were 77 nM and 33 nM, respectively.
As for `CC(=O)N1c2ccc(-c3ccc(C(=O)O)cc3)cc2[C@H](Nc2ccc(Cl)cc2)C[C@@H]1C` [I-BET726], the half-maximal inhibitory concentration (IC50) on BRD3 was 31 nM; on BRD2, 41 nM.
Regarding `CCNC(=O)C[C@@H]1N=C(c2ccc(Cl)cc2)c2cc(OC)ccc2-n2c(C)nnc21` [I-BET762], the IC50 in the data set on BET bromodomain was 32.5 to 42.5 nM.
For `COc1cc(OC)c2c(=O)[nH]c(-c3cc(C)c(OCCO)c(C)c3)nc2c1` [RVX208], the IC50 in the data set on BET BD1 was 87000 nM; with BET BD2, 510 nM.
With `Cc1sc2c(c1C)C(c1ccc(Cl)cc1)=N[C@@H](CC(=O)NCCOCCOCCOCCOCCOCCOCCC(=O)NCCCN(C)CCCNC(=O)CCNC(=O)c1nc(NC(=O)CCNC(=O)c3cc(NC(=O)c4nc(NC(=O)CCNC(=O)c5cc(NC(=O)c6nccn6C)cn5C)cn4C)cn3C)cn1C)c1nnc(C)n1-2` [SynTEF1], the “time at which the compound begins to break down” value in data set [3] was at most 5 days.
